In PubChem BioAssay (NCI):
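These data come from cells grown in 96-well plates and exposed to compound for 48 hours at five concentrations. GI50 marks 50% less growth. TGI: concentration producing complete growth inhibition.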

Legend:
Assay in all cases: DTP human tumour cell line panel, 48 h
786-0 renal = tested on: 786-0 renal
A498 renal = tested on: A498 renal
A549 NSCLC = tested on: A549 NSCLC
ACHN renal = tested on: ACHN renal
BT-549 breast = tested on: BT-549 breast
CAKI-1 renal = tested on: CAKI-1 renal
CCRF-CEM leukemia = tested on: CCRF-CEM leukemia
COLO 205 colon = tested on: COLO 205 colon
DU-145 prostate = tested on: DU-145 prostate
EKVX NSCLC = tested on: EKVX NSCLC
HCC-2998 colon = tested on: HCC-2998 colon
HCT-116 colon = tested on: HCT-116 colon
HCT-15 colon = tested on: HCT-15 colon
HL-60(TB) leukemia = tested on: HL-60(TB) leukemia
HOP-62 NSCLC = tested on: HOP-62 NSCLC
HOP-92 NSCLC = tested on: HOP-92 NSCLC
HS 578T breast = tested on: HS 578T breast
HT29 colon = tested on: HT29 colon
IGROV1 ovarian = tested on: IGROV1 ovarian
K-562 leukemia = tested on: K-562 leukemia
KM12 colon = tested on: KM12 colon
LOX IMVI melanoma = tested on: LOX IMVI melanoma
M14 melanoma = tested on: M14 melanoma
MALME-3M melanoma = tested on: MALME-3M melanoma
MCF7 breast = tested on: MCF7 breast
MDA-MB-231 breast = tested on: MDA-MB-231 breast
MDA-MB-435 = tested on: MDA-MB-435
MDA-MB-468 breast = tested on: MDA-MB-468 breast
MOLT-4 leukemia = tested on: MOLT-4 leukemia
NCI-H226 lung = tested on: NCI-H226 lung
NCI-H23 lung = tested on: NCI-H23 lung
NCI-H460 lung = tested on: NCI-H460 lung
NCI-H522 lung = tested on: NCI-H522 lung
NCI/ADR-RES ovarian = tested on: NCI/ADR-RES ovarian
OVCAR-3 ovarian = tested on: OVCAR-3 ovarian
OVCAR-4 ovarian = tested on: OVCAR-4 ovarian
OVCAR-5 ovarian = tested on: OVCAR-5 ovarian
OVCAR-8 ovarian = tested on: OVCAR-8 ovarian
PC-3 prostate = tested on: PC-3 prostate
RPMI-8226 leukemia = tested on: RPMI-8226 leukemia
RXF 393 renal = tested on: RXF 393 renal
SF-268 CNS = tested on: SF-268 CNS
SF-295 CNS = tested on: SF-295 CNS
SF-539 CNS = tested on: SF-539 CNS
SK-MEL-2 melanoma = tested on: SK-MEL-2 melanoma
SK-MEL-28 melanoma = tested on: SK-MEL-28 melanoma
SK-MEL-5 melanoma = tested on: SK-MEL-5 melanoma
SK-OV-3 ovarian = tested on: SK-OV-3 ovarian
SN12C renal = tested on: SN12C renal
SNB-19 CNS = tested on: SNB-19 CNS
SNB-75 CNS = tested on: SNB-75 CNS
SR leukemia = tested on: SR leukemia
SW-620 colon = tested on: SW-620 colon
T-47D breast = tested on: T-47D breast
TK-10 renal = tested on: TK-10 renal
U251 CNS = tested on: U251 CNS
UACC-257 melanoma = tested on: UACC-257 melanoma
UACC-62 melanoma = tested on: UACC-62 melanoma
UO-31 renal = tested on: UO-31 renal

O=C(NCCCCC(c1ccc(F)cc1)c1ccc(F)cc1)NCCCc1cccnc1
GI50 (786-0 renal): 13.3 µM
TGI (786-0 renal): 37.1 µM
GI50 (A498 renal): 18.3 µM
TGI (A498 renal): 32.9 µM
GI50 (A549 NSCLC): 2.62 µM
TGI (A549 NSCLC): 40.5 µM
GI50 (ACHN renal): 9.16 µM
TGI (ACHN renal): 22.8 µM
GI50 (BT-549 breast): 3.21 µM
TGI (BT-549 breast): 15.3 µM
GI50 (CAKI-1 renal): 5.87 µM
TGI (CAKI-1 renal): 25.3 µM
GI50 (CCRF-CEM leukemia): 0.33 µM
TGI (CCRF-CEM leukemia): 24.6 µM
GI50 (COLO 205 colon): 0.877 µM
TGI (COLO 205 colon): 16.2 µM
GI50 (DU-145 prostate): 0.721 µM
TGI (DU-145 prostate): 17.2 µM
GI50 (EKVX NSCLC): 5.01 µM
TGI (EKVX NSCLC): 23.6 µM
GI50 (HCC-2998 colon): 0.822 µM
TGI (HCC-2998 colon): 17.3 µM
GI50 (HCT-116 colon): 0.0931 µM
TGI (HCT-116 colon): 13 µM
GI50 (HCT-15 colon): 0.461 µM
TGI (HCT-15 colon): 14.9 µM
GI50 (HL-60(TB) leukemia): 1.64 µM
TGI (HL-60(TB) leukemia): > 39.4 µM
GI50 (HOP-62 NSCLC): 14.6 µM
TGI (HOP-62 NSCLC): 30.2 µM
GI50 (HOP-92 NSCLC): 10.4 µM
TGI (HOP-92 NSCLC): 26.5 µM
GI50 (HS 578T breast): 5.04 µM
TGI (HS 578T breast): 34.9 µM
GI50 (HT29 colon): 0.619 µM
TGI (HT29 colon): 17 µM
GI50 (IGROV1 ovarian): 0.816 µM
TGI (IGROV1 ovarian): 19.2 µM
GI50 (K-562 leukemia): 0.385 µM
TGI (K-562 leukemia): > 100 µM
GI50 (KM12 colon): 0.81 µM
TGI (KM12 colon): 18.4 µM
GI50 (LOX IMVI melanoma): 10.7 µM
TGI (LOX IMVI melanoma): 23.4 µM
GI50 (M14 melanoma): 0.607 µM
TGI (M14 melanoma): 16.4 µM
GI50 (MALME-3M melanoma): 8.47 µM
TGI (MALME-3M melanoma): 21.7 µM
GI50 (MCF7 breast): 3.61 µM
TGI (MCF7 breast): 20.3 µM
GI50 (MDA-MB-231 breast): 4.94 µM
TGI (MDA-MB-231 breast): 20.9 µM
GI50 (MDA-MB-435): 0.444 µM
TGI (MDA-MB-435): 15 µM
GI50 (MDA-MB-468 breast): 1.53 µM
TGI (MDA-MB-468 breast): 10.6 µM
GI50 (MOLT-4 leukemia): 1.13 µM
TGI (MOLT-4 leukemia): > 50.5 µM
GI50 (NCI-H226 lung): 12.3 µM
TGI (NCI-H226 lung): 29 µM
GI50 (NCI-H23 lung): 6.8 µM
TGI (NCI-H23 lung): 23 µM
GI50 (NCI-H460 lung): 3.23 µM
TGI (NCI-H460 lung): 19.4 µM
GI50 (NCI-H522 lung): 0.546 µM
TGI (NCI-H522 lung): 16.1 µM
GI50 (NCI/ADR-RES ovarian): 0.584 µM
TGI (NCI/ADR-RES ovarian): 17.3 µM
GI50 (OVCAR-3 ovarian): 4.58 µM
TGI (OVCAR-3 ovarian): 22.4 µM
GI50 (OVCAR-4 ovarian): 4.71 µM
TGI (OVCAR-4 ovarian): 53.1 µM
GI50 (OVCAR-5 ovarian): 0.628 µM
TGI (OVCAR-5 ovarian): 17.8 µM
GI50 (OVCAR-8 ovarian): 0.127 µM
TGI (OVCAR-8 ovarian): 26.4 µM
GI50 (PC-3 prostate): 0.645 µM
TGI (PC-3 prostate): 19 µM
GI50 (RPMI-8226 leukemia): 0.627 µM
TGI (RPMI-8226 leukemia): 20.3 µM
GI50 (RXF 393 renal): 12.4 µM
TGI (RXF 393 renal): 27.3 µM
GI50 (SF-268 CNS): 12.3 µM
TGI (SF-268 CNS): 29.2 µM
GI50 (SF-295 CNS): 1.82 µM
TGI (SF-295 CNS): 15.4 µM
GI50 (SF-539 CNS): 0.0974 µM
TGI (SF-539 CNS): 11.9 µM
GI50 (SK-MEL-2 melanoma): 4.24 µM
TGI (SK-MEL-2 melanoma): 16.9 µM
GI50 (SK-MEL-28 melanoma): 10.6 µM
TGI (SK-MEL-28 melanoma): 23.5 µM
GI50 (SK-MEL-5 melanoma): 1.22 µM
TGI (SK-MEL-5 melanoma): 9.46 µM
GI50 (SK-OV-3 ovarian): 10.9 µM
TGI (SK-OV-3 ovarian): 29 µM
GI50 (SN12C renal): 0.133 µM
TGI (SN12C renal): 15.2 µM
GI50 (SNB-19 CNS): 1.79 µM
TGI (SNB-19 CNS): 18.5 µM
GI50 (SNB-75 CNS): 8.64 µM
TGI (SNB-75 CNS): 26.8 µM
GI50 (SR leukemia): 3.17 µM
TGI (SR leukemia): > 100 µM
GI50 (SW-620 colon): 0.297 µM
TGI (SW-620 colon): 15.7 µM
GI50 (T-47D breast): 0.749 µM
TGI (T-47D breast): 16.1 µM
GI50 (TK-10 renal): 13.7 µM
TGI (TK-10 renal): 29.2 µM
GI50 (U251 CNS): 3.88 µM
TGI (U251 CNS): 22.1 µM
GI50 (UACC-257 melanoma): 9.06 µM
TGI (UACC-257 melanoma): 23.8 µM
GI50 (UACC-62 melanoma): 7.11 µM
TGI (UACC-62 melanoma): 20.2 µM
GI50 (UO-31 renal): 5.51 µM
TGI (UO-31 renal): 20.1 µM
